Assays:
[1] = system: β2-adrenergic receptor (B2AR); settings: cited from earlier work
[2] = Double-blind randomized crossover trial of montelukast and fluticasone propionate in children with asthma; FEV1 response by B2AR diplotype; format: in vivo, human; settings: all children, 8-week treatment periods
Excerpt: (§1) Briefly, 144 children ages 6 to 17 years with mild to moderate persistent asthma were enrolled. […] Children with severe asthma were excluded. Strunk R, et al., supra. Informed consent, approved by the Institutional Review Board of the subject's respective study institution, was obtained from a parent/guardian.

[3] = Baseline methacholine challenge (PC20) by B2AR diplotype; format: in vivo, human; settings: for Methacholine PC20: geometric mean (95% CI), corrected for baseline percent predicted FEV1
Excerpt: as §1

CC(C)(C)NCC(O)c1ccc(O)c(CO)c1 (stereo not shown) [albuterol]
Immediate bronchial responses to albuterol ([1]; carriers of the Arg16 allele vs carriers of the Gly16 allele, subjects naïve to B2AR-agonists): higher immediate responses | Bronchodilator response (improvement in FEV1) to albuterol ([1]; diplotype 4/6, Drysdale et al.): highest response | Lung function on regularly scheduled albuterol ([1]; homozygotes for Arg16 compared with carriers of the other two genotypes): significant deterioration in lung function

CCC(=O)O[C@]1(C(=O)SCF)[C@H](C)C[C@H]2[C@@H]3C[C@H](F)C4=CC(=O)C=C[C@]4(C)[C@@]3(F)[C@@H](O)C[C@@]21C [fluticasone, fluticasone propionate]
Fraction of children with FEV1 response to fluticasone but not to montelukast [2]: one-fourth

CC(=O)OC(C)C[N+](C)(C)C (stereo not shown) [methacholine]
Methacholine PC20 ([3]; 4/4 diplotype, n=18): 0.6 (0.3, 1.1) mg/ml | Methacholine PC20 ([3]; all other diplotypes, n=106): 1.4 (1.1, 1.7) mg/ml | Dose of methacholine causing a 20% fall in FEV1, difference between groups ([3]; lower in the 4/4 diplotype than in the other diplotypes, adjusted for baseline percent predicted FEV1, p=0.015): 1.3 doubling doses

— patent publication US20060069074A1, “Genetic predictor of efficacy of anti-asthmatic agents for improving pulmonary function” (priority 2004, published 2006)
